Results: patent US9433621B2, “Substituted pyridine and pyrimidine derivatives and their use in treating viral infections” (Merck Sharp & Dohme Corp., priority 2010, dated 2016)

Test system: HCV replicon
Experiment: Cell-Based HCV Replicon Assay
Details: Hepatitis C virus, 72 h, read-out: EC90 (uM) range
Description: Cell-Based HCV Replicon Assay
To measure cell-based anti-HCV activity of the compounds of the present invention, replicon cells were seeded at 5000 cells/well in 96-well collagen I-coated Nunc plates in the presence of the compound of the invention. Various concentrations of a compound of the invention, typically in 10 serial 2-fold dilutions, were added to the assay mixture, the starting concentration of the compound ranging from 25 μM to 1 μM. The final concentration of DMSO was 0.5%, fetal bovine serum was 10%, in the assay media. Cells were harvested on day 3 by the addition of 1× cell lysis buffer (Ambion cat #8721). The replicon RNA level was measured using real time PCR (Taqman assay). The amplicon was located in 5B. The PCR primers were: 5B.2F, ATGGACAGGCGCCCTGA; 5B.2R, […]; the probe sequence was FAM-labeled CACGCCATGCGCTGCGG. GAPDH RNA was used as endogenous control and was amplified in the same reaction as NS5B (multiplex PCR) using primers and VIC-labeled probe recommended by the manufacturer (PE Applied Biosystem). The real-time RT-PCR reactions were run on ABI PRISM® 7900HT Sequence Detection System using the following program: 48′C for 30 min, 95′C for 10 min, 40 cycles of 95′C for 15 sec, 60′C for 1 min. The ΔCT values (CT5B-CTGAPDH) were plotted against the concentration of test compound and fitted to the sigmoid dose-response model using Graph Pad PRISM® software. EC50 was defined as the concentration of inhibitor necessary to achieve ΔCT=1 over the projected baseline; EC90 the concentration necessary to achieve ΔCT=3.2 over the baseline. Alternatively, to quantitate the absolute amount of replicon RNA, a standard curve was established by including serially diluted T7 transcripts of replicon RNA in the Taqman assay. All Taqman reagents were from PE Applied Biosystems. Such an assay procedure was described in detail in e.g. Malcolm et al., Antimicrobial Agents and Chemotherapy 50: 1013-1020 (2006).
HCV Replicon assay data for compounds of the invention that were tested were obtained using the above method.

SMILES | EC90
Cc1nccc2sc(-c3cnc(N[C@H](C)C4CCC4)nc3N[C@@H]3C[C@H](CO)[C@@H](O)[C@H]3O)nc12 [Example 4915] | > 1 µM

Same assay, conditions: Hepatitis C virus, 72 h; Table IV; replicon cells, day 3, real time PCR; EC90 = concentration for ΔCT=3.2 over baseline; read-out: EC90

SMILES | EC90
Cc1nc(NCc2c(F)cccc2F)nc(N[C@@H]2C[C@H](C(C)(C)O)[C@@H](O)[C@H]2O)c1-c1nc2c(N)nccc2s1 [Example 4443] | 0.055 µM
Cc1nc(NC[C@H]2C[C@@H](c3ccccc3)C2)nc(N[C@@H]2C[C@H](CO)[C@@H](O)[C@H]2O)c1-c1nc2cnccc2s1 [Example 4512] | 0.019 µM
Cc1nc(NC[C@H]2C[C@H](c3ccccc3)C2)nc(N[C@@H]2C[C@H](CO)[C@@H](O)[C@H]2O)c1-c1nc2cnccc2s1 [Example 4513] | 0.016 µM
CCc1cc2sc(-c3c(C)nc(NCC(F)(F)F)nc3N[C@@H]3C[C@H](CO)[C@@H](O)[C@H]3O)nc2c(CC)n1 [Example 4706] | 0.045 µM

Same assay, conditions: Hepatitis C virus, 72 h; Table V, cells printed as numeric bound instead of code; replicon cells, day 3, real time PCR; read-out: EC90 (uM) range

SMILES | EC90
C[C@@H](Nc1ncc(-c2nc3c(C4CC4)nccc3s2)c(N[C@@H]2C[C@H](CS(C)(=O)=O)[C@@H](O)[C@H]2O)n1)C1CC1 [Example 4917] | > 0.2 µM
CS(=O)(=O)C[C@H]1C[C@@H](Nc2nc(NC3CCC3)ncc2-c2nc3c(C4CC4)nccc3s2)[C@H](O)[C@@H]1O [Example 4922] | > 0.3 µM

Same assay, conditions: Hepatitis C virus, 72 h; Table V, class codes; replicon cells, day 3, real time PCR; EC90 = concentration for ΔCT=3.2 over baseline; read-out: EC90 (uM) range

SMILES | EC90
Cc1nc(NCc2ccccc2F)nc(N[C@@H]2C[C@H](CO)[C@@H](O)[C@H]2O)c1-c1nc2c(C3CC3)nccc2s1 [Example 4901] | < 0.5 µM
Cc1nc(NCc2cccc(F)c2)nc(N[C@@H]2C[C@H](CO)[C@@H](O)[C@H]2O)c1-c1nc2c(C3CC3)nccc2s1 [Example 4902] | < 0.5 µM
CO[C@@H]1[C@@H](CO)C[C@@H](Nc2nc(NCC3CC3)nc(C)c2-c2nc3c(C)nccc3s2)[C@@H]1O [Example 4903] | < 0.5 µM
CO[C@@H]1[C@@H](CO)C[C@@H](Nc2nc(N[C@H](C)c3ccc(OC(F)(F)F)cc3)nc(C)c2-c2nc3c(C)nccc3s2)[C@@H]1O [Example 4904] | < 0.5 µM
CO[C@@H]1[C@@H](CO)C[C@@H](Nc2nc(NCC(F)(F)F)nc(C)c2-c2nc3c(C)nccc3s2)[C@@H]1O [Example 4905] | < 0.5 µM
CNc1nc(C)c(-c2nc3c(C)nccc3s2)c(N[C@@H]2C[C@H](CO)[C@@H](OC)[C@H]2O)n1 [Example 4906] | 0.5 to 5 µM
CO[C@@H]1[C@@H](CO)C[C@@H](Nc2nc(N)nc(C)c2-c2nc3c(C)nccc3s2)[C@@H]1O [Example 4907] | < 0.5 µM
Cc1cc2sc(-c3c(C)nc(NCc4c(F)cccc4F)nc3N[C@@H]3C[C@H](CO)[C@@H](O)[C@H]3O)nc2cn1 [Example 4908] | < 0.5 µM
Cc1cc2sc(-c3c(C)nc(NCC4CC4)nc3N[C@@H]3C[C@H](CO)[C@@H](O)[C@H]3O)nc2cn1 [Example 4909] | < 0.5 µM
Cc1cc2sc(-c3c(C)nc(NCC(F)(F)F)nc3N[C@@H]3C[C@H](CO)[C@@H](O)[C@H]3O)nc2cn1 [Example 4910] | < 0.5 µM
CCOCCNc1nc(C)c(-c2nc3cnc(C)cc3s2)c(N[C@@H]2C[C@H](CO)[C@@H](O)[C@H]2O)n1 [Example 4911] | < 0.5 µM
Cc1cc2sc(-c3c(C)nc(N[C@H](C)C4CCC4)nc3N[C@@H]3C[C@H](CO)[C@@H](O)[C@H]3O)nc2cn1 [Example 4912] | < 0.5 µM
Cc1ccc([C@@H](C)Nc2nc(C)c(-c3nc4cnc(C)cc4s3)c(N[C@@H]3C[C@H](CO)[C@@H](O)[C@H]3O)n2)cc1 [Example 4913] | < 0.5 µM
COCCNc1ncc(-c2nc3c(C4CC4)nccc3s2)c(N[C@@H]2C[C@H](CS(C)(=O)=O)[C@@H](O)[C@H]2O)n1 [Example 4916] | 0.5 to 5 µM
C[C@@H](Nc1ncc(-c2nc3c(C4CC4)nccc3s2)c(N[C@@H]2C[C@H](CS(C)(=O)=O)[C@@H](O)[C@H]2O)n1)C1CCC1 [Example 4918] | < 0.5 µM
CS(=O)(=O)C[C@H]1C[C@@H](Nc2nc(N)ncc2-c2nc3c(C4CC4)nccc3s2)[C@H](O)[C@@H]1O [Example 4919] | < 0.5 µM
CS(=O)(=O)C[C@H]1C[C@@H](Nc2nc(NCC3CC3)ncc2-c2nc3c(C4CC4)nccc3s2)[C@H](O)[C@@H]1O [Example 4920] | < 0.5 µM
C[C@@H](Nc1ncc(-c2nc3c(C4CC4)nccc3s2)c(N[C@@H]2C[C@H](CS(C)(=O)=O)[C@@H](O)[C@H]2O)n1)c1ccc(OC(F)(F)F)cc1 [Example 4921] | 0.5 to 5 µM

SMILES | EC90
Cc1nc(N[C@H](C)C2CC2)nc(N[C@@H]2C[C@H](C(=O)N3CCOCC3)[C@@H](O)[C@H]2O)c1-c1nc2c(C3CC3)nccc2s1 [Example 4923] | < 0.5 µM
Cc1nc(NCC2CC2)nc(N[C@@H]2C[C@H](C(=O)N3CCOCC3)[C@@H](O)[C@H]2O)c1-c1nc2c(C3CC3)nccc2s1 [Example 4924] | < 0.5 µM
Cc1nc(N)nc(N[C@@H]2C[C@H](C(=O)N3CCOCC3)[C@@H](O)[C@H]2O)c1-c1nc2c(C3CC3)nccc2s1 [Example 4925] | < 0.5 µM
COCCNc1nc(C)c(-c2nc3c(C4CC4)nccc3s2)c(N[C@@H]2C[C@H](C(=O)Nc3nccs3)[C@@H](O)[C@H]2O)n1 [Example 4926] | < 0.5 µM
Cc1nc(NCC2CC2)nc(N[C@@H]2C[C@H](C(=O)Nc3nccs3)[C@@H](O)[C@H]2O)c1-c1nc2c(C3CC3)nccc2s1 [Example 4927] | < 0.5 µM
Cc1nc(N[C@H](C)c2ccc(OC(F)(F)F)cc2)nc(N[C@@H]2C[C@H](C(=O)Nc3nccs3)[C@@H](O)[C@H]2O)c1-c1nc2c(C3CC3)nccc2s1 [Example 4928] | < 0.5 µM
Cc1nc(N)nc(N[C@@H]2C[C@H](C(=O)NC(C)(C)C)[C@@H](O)[C@H]2O)c1-c1nc2c(C3CC3)nccc2s1 [Example 4929] | < 0.5 µM
COCCNc1nc(C)c(-c2nc3c(C4CC4)nccc3s2)c(N[C@@H]2C[C@H](C(=O)NC(C)(C)C)[C@@H](O)[C@H]2O)n1 [Example 4930] | < 0.5 µM
Cc1nc(NCC2CC2)nc(N[C@@H]2C[C@H](C(=O)NC(C)(C)C)[C@@H](O)[C@H]2O)c1-c1nc2c(C3CC3)nccc2s1 [Example 4931] | < 0.5 µM
Cc1nc(N[C@H](C)c2ccc(F)cc2)nc(N[C@@H]2C[C@H](CO)[C@@H](O)[C@H]2O)c1-c1nc2c(C3CC3)nccc2s1 [Example 4932] | < 0.5 µM
Cc1cccc([C@@H](C)Nc2nc(C)c(-c3nc4c(C5CC5)nccc4s3)c(N[C@@H]3C[C@H](CO)[C@@H](O)[C@H]3O)n2)c1 [Example 4933] | < 0.5 µM
Cc1ccccc1[C@@H](C)Nc1nc(C)c(-c2nc3c(C4CC4)nccc3s2)c(N[C@@H]2C[C@H](CO)[C@@H](O)[C@H]2O)n1 [Example 4934] | < 0.5 µM
Cc1nccc2sc(-c3cnc(NCC4CC4)nc3N[C@@H]3C[C@H](C(C)(C)O)[C@@H](O)[C@H]3O)nc12 [Example 4935] | < 0.5 µM
CCSCCNc1ncc(-c2nc3c(C)nccc3s2)c(N[C@@H]2C[C@H](C(C)(C)O)[C@@H](O)[C@H]2O)n1 [Example 4936] | < 0.5 µM
Cc1nccc2sc(-c3cnc(N)nc3N[C@@H]3C[C@H](C(C)(C)O)[C@@H](O)[C@H]3O)nc12 [Example 4937] | 0.5 to 5 µM
COCCNc1ncc(-c2nc3c(C)nccc3s2)c(N[C@@H]2C[C@H](C(C)(C)O)[C@@H](O)[C@H]2O)n1 [Example 4938] | < 0.5 µM
CO[C@H](C)CNc1ncc(-c2nc3c(C)nccc3s2)c(N[C@@H]2C[C@H](C(C)(C)O)[C@@H](O)[C@H]2O)n1 [Example 4939] | < 0.5 µM
Cc1nccc2sc(-c3cnc(NCCSC(C)(C)C)nc3N[C@@H]3C[C@H](C(C)(C)O)[C@@H](O)[C@H]3O)nc12 [Example 4940] | < 0.5 µM
